Key:
Assay in all cases: scanMAX Kinase panel (DiscoverX)
Format in all cases: binding
[1] = molecular target: T1, LIMK1 (Homo sapiens, UniProt P53667); settings: read-out: % Cont @ 1 uM
T1 construct: purchased DiscoverX scanMAX Kinase panel
How it was run: (§1)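 Cmpd 1 μM (DMSO) vs kinase; readout % control = (cmpd − pos ctrl)/(neg ctrl − pos ctrl) × 100.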

[2] = molecular target: T2, KIT(D816V) (Homo sapiens, UniProt P10721, D816V); settings: read-out: % Cont @ 1 uM
T2 construct: purchased DiscoverX scanMAX Kinase panel
How it was run: as §1

[3] = molecular target: T3, MAP3K2 (Homo sapiens, UniProt Q9Y2U5); settings: read-out: % Cont @ 1 uM
T3 construct: purchased DiscoverX scanMAX Kinase panel
How it was run: as §1

[4] = molecular target: T4, ABL1(E255K)-phosphorylated (Homo sapiens, UniProt P00519, E255K); settings: read-out: % Cont @ 1 uM
T4 construct: purchased DiscoverX
How it was run: as §1

[5] = molecular target: T5, KIT(V559D) (Homo sapiens, UniProt P10721, V559D); settings: read-out: % Cont @ 1 uM
T5 construct: purchased DiscoverX scanMAX Kinase panel
How it was run: as §1

[6] = molecular target: T6, RET(M918T) (Homo sapiens, UniProt P07949, M918T); settings: read-out: % Cont @ 1 uM
T6 construct: purchased DiscoverX scanMAX Kinase panel
How it was run: as §1

[7] = molecular target: T7, ERBB4 (Homo sapiens, UniProt Q15303); settings: read-out: % Cont @ 1 uM
T7 construct: purchased DiscoverX scanMAX Kinase panel
How it was run: as §1

[8] = molecular target: T8, IRAK1 (Homo sapiens, UniProt P51617); settings: read-out: % Cont @ 1 uM
T8 construct: purchased DiscoverX scanMAX Kinase panel
How it was run: as §1

[9] = molecular target: T9, KIT (Homo sapiens, UniProt P10721); settings: read-out: % Cont @ 1 uM
T9 construct: purchased DiscoverX scanMAX Kinase panel
T9 sequence (P10721 26-976): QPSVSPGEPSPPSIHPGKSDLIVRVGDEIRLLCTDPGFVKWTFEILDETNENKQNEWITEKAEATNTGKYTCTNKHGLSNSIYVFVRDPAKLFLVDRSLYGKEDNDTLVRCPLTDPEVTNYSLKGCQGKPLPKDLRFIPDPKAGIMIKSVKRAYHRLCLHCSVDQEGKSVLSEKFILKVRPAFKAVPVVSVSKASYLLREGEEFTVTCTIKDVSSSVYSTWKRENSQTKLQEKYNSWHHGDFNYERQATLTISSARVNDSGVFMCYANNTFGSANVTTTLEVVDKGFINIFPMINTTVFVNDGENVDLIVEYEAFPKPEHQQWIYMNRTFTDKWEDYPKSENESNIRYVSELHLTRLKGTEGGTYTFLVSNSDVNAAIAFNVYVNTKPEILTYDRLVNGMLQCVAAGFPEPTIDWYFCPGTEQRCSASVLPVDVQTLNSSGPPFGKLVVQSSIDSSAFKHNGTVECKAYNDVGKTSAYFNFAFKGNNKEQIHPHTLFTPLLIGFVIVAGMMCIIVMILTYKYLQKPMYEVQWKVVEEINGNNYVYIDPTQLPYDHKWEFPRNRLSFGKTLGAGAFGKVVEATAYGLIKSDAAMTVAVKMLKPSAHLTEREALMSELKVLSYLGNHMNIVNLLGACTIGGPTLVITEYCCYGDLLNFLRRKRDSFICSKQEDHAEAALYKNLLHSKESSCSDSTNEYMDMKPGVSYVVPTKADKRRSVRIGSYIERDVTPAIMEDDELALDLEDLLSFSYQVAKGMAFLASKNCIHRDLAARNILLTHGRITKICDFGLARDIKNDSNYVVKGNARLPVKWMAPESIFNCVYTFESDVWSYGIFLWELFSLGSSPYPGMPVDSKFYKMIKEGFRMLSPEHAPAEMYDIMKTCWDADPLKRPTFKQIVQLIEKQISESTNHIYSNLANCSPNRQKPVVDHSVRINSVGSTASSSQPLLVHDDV
How it was run: as §1

[10] = molecular target: T10, CDK11 (Homo sapiens, UniProt Q9BWU1)
T10 construct: purchased DiscoverX scanMAX Kinase panel
T10 sequence (Q9BWU1 whole entry): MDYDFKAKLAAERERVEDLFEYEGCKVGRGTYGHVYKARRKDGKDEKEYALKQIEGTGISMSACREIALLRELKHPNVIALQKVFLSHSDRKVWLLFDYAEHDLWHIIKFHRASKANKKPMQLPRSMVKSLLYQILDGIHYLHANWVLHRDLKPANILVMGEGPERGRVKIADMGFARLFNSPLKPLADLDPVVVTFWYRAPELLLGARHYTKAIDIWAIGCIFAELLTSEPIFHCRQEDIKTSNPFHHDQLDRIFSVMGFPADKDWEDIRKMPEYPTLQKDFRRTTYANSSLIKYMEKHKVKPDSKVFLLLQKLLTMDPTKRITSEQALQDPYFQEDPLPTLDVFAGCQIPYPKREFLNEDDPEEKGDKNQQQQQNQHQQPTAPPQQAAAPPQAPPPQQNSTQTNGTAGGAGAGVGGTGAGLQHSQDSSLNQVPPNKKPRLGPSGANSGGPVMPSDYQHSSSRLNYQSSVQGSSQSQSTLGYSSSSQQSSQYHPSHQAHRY
How it was run: as §1

[11] = molecular target: T11, MET(Y1235D) (Homo sapiens, UniProt P08581, Y1235D)
T11 construct: purchased DiscoverX scanMAX Kinase panel
How it was run: as §1

[12] = molecular target: T12, EPHA7 (Homo sapiens, UniProt Q15375); settings: read-out: % Cont @ 1 uM
T12 construct: purchased DiscoverX scanMAX Kinase panel
How it was run: as §1

[13] = molecular target: T13, ABL1(F317L)-nonphosphorylated (Homo sapiens, UniProt P00519, F317L); settings: read-out: % Cont @ 1 uM
T13 construct: purchased DiscoverX
How it was run: as §1

[14] = molecular target: T14, MAP3K3 (Homo sapiens, UniProt Q99759); settings: read-out: % Cont @ 1 uM
T14 construct: purchased DiscoverX scanMAX Kinase panel
How it was run: as §1

[15] = molecular target: T15, TXK (Homo sapiens, UniProt P42681); settings: read-out: % Cont @ 1 uM
T15 construct: purchased DiscoverX scanMAX Kinase panel
T15 sequence (P42681 whole entry): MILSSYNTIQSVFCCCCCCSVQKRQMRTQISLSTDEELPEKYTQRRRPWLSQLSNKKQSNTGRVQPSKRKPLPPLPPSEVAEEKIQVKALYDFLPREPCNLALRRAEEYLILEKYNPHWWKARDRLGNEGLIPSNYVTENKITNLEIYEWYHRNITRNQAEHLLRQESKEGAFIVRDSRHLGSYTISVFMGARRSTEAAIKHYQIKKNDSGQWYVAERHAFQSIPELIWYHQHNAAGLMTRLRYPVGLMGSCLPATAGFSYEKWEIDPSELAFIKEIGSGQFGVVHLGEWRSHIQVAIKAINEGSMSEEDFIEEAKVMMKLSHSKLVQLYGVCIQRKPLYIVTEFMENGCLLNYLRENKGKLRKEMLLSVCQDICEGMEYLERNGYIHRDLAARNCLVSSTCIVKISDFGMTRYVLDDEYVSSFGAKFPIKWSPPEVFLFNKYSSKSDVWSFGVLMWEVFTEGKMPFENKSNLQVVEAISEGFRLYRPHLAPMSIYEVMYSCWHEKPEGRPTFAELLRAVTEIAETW
How it was run: as §1

[16] = molecular target: T16, PDGFRB (Homo sapiens, UniProt P09619); settings: read-out: % Cont @ 1 uM
T16 construct: purchased DiscoverX scanMAX Kinase panel
T16 sequence (P09619 33-1106): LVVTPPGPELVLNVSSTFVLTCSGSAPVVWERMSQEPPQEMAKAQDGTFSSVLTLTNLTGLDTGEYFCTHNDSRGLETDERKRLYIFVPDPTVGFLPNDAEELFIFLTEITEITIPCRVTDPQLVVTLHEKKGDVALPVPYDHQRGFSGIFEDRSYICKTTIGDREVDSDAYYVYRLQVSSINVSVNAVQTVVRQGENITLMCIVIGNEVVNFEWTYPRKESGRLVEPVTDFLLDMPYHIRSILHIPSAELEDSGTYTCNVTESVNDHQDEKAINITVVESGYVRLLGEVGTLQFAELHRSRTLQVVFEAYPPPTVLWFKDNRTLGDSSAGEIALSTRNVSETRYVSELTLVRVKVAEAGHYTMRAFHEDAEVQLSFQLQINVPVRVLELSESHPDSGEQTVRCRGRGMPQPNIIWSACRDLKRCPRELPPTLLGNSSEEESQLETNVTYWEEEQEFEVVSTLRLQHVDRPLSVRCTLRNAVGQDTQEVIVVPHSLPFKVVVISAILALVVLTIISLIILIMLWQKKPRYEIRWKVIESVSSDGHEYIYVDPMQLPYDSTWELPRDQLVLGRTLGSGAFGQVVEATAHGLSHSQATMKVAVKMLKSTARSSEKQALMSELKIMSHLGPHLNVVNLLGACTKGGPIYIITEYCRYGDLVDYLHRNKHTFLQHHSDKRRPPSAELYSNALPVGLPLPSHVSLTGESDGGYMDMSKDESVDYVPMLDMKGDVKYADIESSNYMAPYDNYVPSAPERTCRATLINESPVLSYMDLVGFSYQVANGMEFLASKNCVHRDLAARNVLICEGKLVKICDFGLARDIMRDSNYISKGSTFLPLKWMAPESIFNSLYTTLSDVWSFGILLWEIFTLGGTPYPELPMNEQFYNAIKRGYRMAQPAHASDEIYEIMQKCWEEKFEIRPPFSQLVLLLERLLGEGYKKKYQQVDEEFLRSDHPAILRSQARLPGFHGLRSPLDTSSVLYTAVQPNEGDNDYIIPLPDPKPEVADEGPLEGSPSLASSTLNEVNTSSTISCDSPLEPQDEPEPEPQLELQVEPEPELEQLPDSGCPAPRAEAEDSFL
How it was run: as §1

[17] = molecular target: T17, HCK (Homo sapiens, UniProt P08631); settings: read-out: % Cont @ 1 uM
T17 construct: purchased DiscoverX scanMAX Kinase panel
How it was run: as §1

[18] = molecular target: T18, FLT3(R834Q) (Homo sapiens, UniProt P36888, R834Q); settings: read-out: % Cont @ 1 uM
T18 construct: purchased DiscoverX scanMAX Kinase panel
How it was run: as §1

[19] = molecular target: T19, RET(V804L) (Homo sapiens, UniProt P07949, V804L); settings: read-out: % Cont @ 1 uM
T19 construct: purchased DiscoverX scanMAX Kinase panel
How it was run: as §1

[20] = molecular target: T20, EGFR(E746-A750del) (Homo sapiens, UniProt P00533, DEL746-750)
T20 construct: purchased DiscoverX scanMAX Kinase panel
How it was run: as §1

[21] = molecular target: T21, KIT(A829P) (Homo sapiens, UniProt P10721, A829P); settings: read-out: % Cont @ 1 uM
T21 construct: purchased DiscoverX scanMAX Kinase panel
T21 sequence (P10721 26-976 A829P): as the sequence (P10721 26-976) above, with A804P counted along it
How it was run: as §1

[22] = molecular target: T22, FGFR4 (Homo sapiens, UniProt P22455); settings: read-out: % Cont @ 1 uM
T22 construct: purchased DiscoverX scanMAX Kinase panel
How it was run: as §1

[23] = molecular target: T23, ABL1(F317I)-phosphorylated (Homo sapiens, UniProt P00519, F317I); settings: read-out: % Cont @ 1 uM
T23 construct: purchased DiscoverX
How it was run: as §1

[24] = molecular target: T24, EPHA1 (Homo sapiens, UniProt P21709); settings: read-out: % Cont @ 1 uM
T24 construct: purchased DiscoverX scanMAX Kinase panel
How it was run: as §1

[25] = molecular target: T25, ERBB2 (Homo sapiens, UniProt P04626); settings: read-out: % Cont @ 1 uM
T25 construct: purchased DiscoverX scanMAX Kinase panel
How it was run: as §1

[26] = molecular target: T26, NLK (Homo sapiens, UniProt Q9UBE8); settings: read-out: % Cont @ 1 uM
T26 construct: purchased DiscoverX scanMAX Kinase panel
How it was run: as §1

[27] = molecular target: T27, PDGFRA (Homo sapiens, UniProt P16234); settings: read-out: % Cont @ 1 uM
T27 construct: purchased DiscoverX scanMAX Kinase panel
How it was run: as §1

[28] = molecular target: T28, ERK8 (Homo sapiens, UniProt Q8TD08); settings: read-out: % Cont @ 1 uM
T28 construct: purchased DiscoverX scanMAX Kinase panel
T28 sequence (Q8TD08 whole entry): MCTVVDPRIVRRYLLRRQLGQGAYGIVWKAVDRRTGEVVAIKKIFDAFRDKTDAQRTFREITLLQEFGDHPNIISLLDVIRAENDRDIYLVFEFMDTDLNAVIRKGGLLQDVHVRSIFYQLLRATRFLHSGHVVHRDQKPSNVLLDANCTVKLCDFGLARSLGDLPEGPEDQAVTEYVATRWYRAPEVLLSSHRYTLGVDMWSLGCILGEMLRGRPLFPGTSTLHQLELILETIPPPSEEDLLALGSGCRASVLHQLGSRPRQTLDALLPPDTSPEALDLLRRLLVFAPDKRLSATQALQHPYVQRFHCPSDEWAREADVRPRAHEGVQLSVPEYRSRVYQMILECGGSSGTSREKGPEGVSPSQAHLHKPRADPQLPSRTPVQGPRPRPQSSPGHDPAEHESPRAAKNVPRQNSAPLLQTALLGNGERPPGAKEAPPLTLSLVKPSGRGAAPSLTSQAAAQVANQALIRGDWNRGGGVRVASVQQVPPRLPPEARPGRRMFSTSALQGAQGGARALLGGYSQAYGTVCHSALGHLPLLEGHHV
How it was run: as §1

[29] = molecular target: T29, CDKL2 (Homo sapiens, UniProt Q92772); settings: read-out: % Cont @ 1 uM
T29 construct: purchased DiscoverX scanMAX Kinase panel
How it was run: as §1

[30] = molecular target: T30, TESK1 (Homo sapiens, UniProt Q15569); settings: read-out: % Cont @ 1 uM
T30 construct: purchased DiscoverX scanMAX Kinase panel
T30 sequence (Q15569 whole entry): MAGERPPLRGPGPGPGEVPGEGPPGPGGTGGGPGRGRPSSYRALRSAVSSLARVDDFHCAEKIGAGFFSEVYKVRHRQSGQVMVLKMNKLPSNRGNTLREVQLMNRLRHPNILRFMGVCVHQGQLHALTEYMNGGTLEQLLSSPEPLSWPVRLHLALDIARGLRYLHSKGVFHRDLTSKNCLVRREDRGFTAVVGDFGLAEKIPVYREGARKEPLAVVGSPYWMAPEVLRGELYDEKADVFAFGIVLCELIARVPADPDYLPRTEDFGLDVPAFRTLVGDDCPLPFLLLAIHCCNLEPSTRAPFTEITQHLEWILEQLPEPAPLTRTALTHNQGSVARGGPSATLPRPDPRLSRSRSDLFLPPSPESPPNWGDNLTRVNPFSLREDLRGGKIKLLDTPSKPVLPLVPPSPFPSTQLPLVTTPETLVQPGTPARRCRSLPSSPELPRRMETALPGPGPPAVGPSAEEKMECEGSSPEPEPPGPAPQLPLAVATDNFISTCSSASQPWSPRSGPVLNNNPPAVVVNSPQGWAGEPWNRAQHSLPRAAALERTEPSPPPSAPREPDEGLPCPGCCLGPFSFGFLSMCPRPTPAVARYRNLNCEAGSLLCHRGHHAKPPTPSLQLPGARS
How it was run: as §1

[31] = molecular target: T31, RIPK1 (Homo sapiens, UniProt Q13546); settings: read-out: % Cont @ 1 uM
T31 construct: purchased DiscoverX scanMAX Kinase panel
How it was run: as §1

[32] = molecular target: T32, AXL (Homo sapiens, UniProt P30530); settings: read-out: % Cont @ 1 uM
T32 construct: purchased DiscoverX scanMAX Kinase panel
How it was run: as §1

[33] = molecular target: T33, STK33 (Homo sapiens, UniProt Q9BYT3); settings: read-out: % Cont @ 1 uM
T33 construct: purchased DiscoverX scanMAX Kinase panel
How it was run: as §1

[34] = molecular target: T34, FLT1 (Homo sapiens, UniProt P17948); settings: read-out: % Cont @ 1 uM
T34 construct: purchased DiscoverX scanMAX Kinase panel
How it was run: as §1

[35] = molecular target: T35, EGFR(L747-S752del, P753S) (Homo sapiens, UniProt P00533, DEL747-752/P753S)
T35 construct: purchased DiscoverX scanMAX Kinase panel
How it was run: as §1

[36] = molecular target: T36, FGFR3 (Homo sapiens, UniProt P22607); settings: read-out: % Cont @ 1 uM
T36 construct: purchased DiscoverX scanMAX Kinase panel
T36 sequence (P22607 23-806): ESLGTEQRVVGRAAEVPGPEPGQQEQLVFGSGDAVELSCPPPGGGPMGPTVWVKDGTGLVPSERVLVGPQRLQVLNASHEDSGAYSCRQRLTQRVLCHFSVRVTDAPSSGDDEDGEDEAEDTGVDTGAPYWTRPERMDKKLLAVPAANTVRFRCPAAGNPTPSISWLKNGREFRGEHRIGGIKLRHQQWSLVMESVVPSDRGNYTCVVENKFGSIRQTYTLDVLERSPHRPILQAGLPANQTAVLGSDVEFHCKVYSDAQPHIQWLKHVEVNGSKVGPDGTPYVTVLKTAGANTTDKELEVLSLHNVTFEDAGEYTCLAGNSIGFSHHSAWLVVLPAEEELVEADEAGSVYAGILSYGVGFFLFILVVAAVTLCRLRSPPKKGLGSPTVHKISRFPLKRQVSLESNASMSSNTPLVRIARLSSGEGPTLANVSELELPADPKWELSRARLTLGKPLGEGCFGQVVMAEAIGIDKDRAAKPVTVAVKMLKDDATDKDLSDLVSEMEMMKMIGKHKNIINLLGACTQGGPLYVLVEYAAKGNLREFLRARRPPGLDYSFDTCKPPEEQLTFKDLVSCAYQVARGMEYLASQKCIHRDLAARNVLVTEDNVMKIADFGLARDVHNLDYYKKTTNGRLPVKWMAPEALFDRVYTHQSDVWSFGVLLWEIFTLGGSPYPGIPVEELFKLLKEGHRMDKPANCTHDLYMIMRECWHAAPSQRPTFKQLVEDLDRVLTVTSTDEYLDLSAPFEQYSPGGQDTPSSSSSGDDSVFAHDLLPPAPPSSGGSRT
How it was run: as §1

[37] = molecular target: T37, AURKC (Homo sapiens, UniProt Q9UQB9); settings: read-out: % Cont @ 1 uM
T37 construct: purchased DiscoverX scanMAX Kinase panel
How it was run: as §1

[38] = molecular target: T38, JNK2 (Homo sapiens, UniProt P45984)
T38 construct: purchased DiscoverX scanMAX Kinase panel
How it was run: as §1

| Compound | percent of control binding at 1 µM [1] | percent of control binding at 1 µM [2] | remaining binding at 1 µM [3] | remaining binding at 1 µM [4] | remaining binding at 1 µM [5] | remaining binding at 1 µM [6] | remaining binding at 1 µM [7] | percent of control binding at 1 µM [8] | percent of control binding at 1 µM [9] | % Cont @ 1 uM [10] | % Cont @ 1 uM [11] | remaining binding at 1 µM [12] | remaining binding at 1 µM [13] | remaining binding at 1 µM [14] | remaining binding at 1 µM [15] | remaining binding at 1 µM [16] | remaining binding at 1 µM [17] | remaining binding at 1 µM [18] | remaining binding at 1 µM [19] | % Cont @ 1 uM [20] | other results |
| --- | --- | --- | --- | --- | --- | --- | --- | --- | --- | --- | --- | --- | --- | --- | --- | --- | --- | --- | --- | --- | --- |
| Cc1cn(-c2cc(NC(=O)c3cc(C#Cc4cnc5c(Nc6cnn(C)c6)cccn45)c(C)cc3F)cc(C(C)(C)C#N)c2)cn1 [Example 1, N-(3-(2-cyanopropane-2-yl)-5-(4-methyl-1H-imidazol-1-yl)phenyl)-2-fluoro-4-methyl-5-((8-((1-methyl-1H-pyrazol-4-yl)amino)imidazo[1,2-a]pyridin-3-yl)ethynyl)benzamide] | 33% | 13% | 34% | 0.9% | 0% | 0% | 18% | 27% | 0% | 14.8% | 17% | 16% | 2.7% | 19% | 1.6% | 0% | 0.2% | 0.9% | 0.6% | 0% | percent of control binding at 1 µM [21]: 1.1%; remaining binding at 1 µM [22]: 2.8%; remaining binding at 1 µM [23]: 9.2%; remaining binding at 1 µM [24]: 4.1%; remaining binding at 1 µM [25]: 34%; remaining binding at 1 µM [26]: 0%; percent of control binding at 1 µM [27]: 2%; remaining binding at 1 µM [28]: 19%; remaining binding at 1 µM [29]: 0.7%; remaining binding at 1 µM [30]: 33%; remaining binding at 1 µM [31]: 1.6%; remaining binding at 1 µM [32]: 14.4%; remaining binding at 1 µM [33]: 12%; remaining binding at 1 µM [34]: 1.4%; % Cont @ 1 uM [35]: 1.3%; remaining binding at 1 µM [36]: 23%; remaining binding at 1 µM [37]: 27%; % Cont @ 1 uM [38]: 12% |
| Cc1cn(-c2cc(NC(=O)c3cc(C#Cc4cnc5c(Nc6cnn(C)c6)cccn45)c(C)cc3F)cc(C(F)(F)F)c2)cn1 [Example 4, 2-fluoro-4-methyl-N-(3-(4-methyl-1H-imidazol-1-yl)-5-(trifluoromethyl)phenyl)-5-((8-((1-methyl-1H-pyrazol-4-yl)amino)imidazo[1,2-a]pyridin-3-yl)ethynyl)benzamide] | 75% | 61% | 87% | 12% | 0.25% | 0.95% | 46% | 100% | 1.6% | 55% | 87% | 63% | 10% | 82% | 11% | 0.05% | 0.65% | 34% | 6% | 56% | percent of control binding at 1 µM [21]: 2%; remaining binding at 1 µM [22]: 53%; remaining binding at 1 µM [23]: 22%; remaining binding at 1 µM [24]: 37%; remaining binding at 1 µM [25]: 65%; remaining binding at 1 µM [26]: 14%; percent of control binding at 1 µM [27]: 11%; remaining binding at 1 µM [28]: 90%; remaining binding at 1 µM [29]: 14%; remaining binding at 1 µM [30]: 100%; remaining binding at 1 µM [31]: 44%; remaining binding at 1 µM [32]: 1.4%; remaining binding at 1 µM [33]: 76%; remaining binding at 1 µM [34]: 11%; % Cont @ 1 uM [35]: 40%; remaining binding at 1 µM [36]: 88%; remaining binding at 1 µM [37]: 39%; % Cont @ 1 uM [38]: 81% |

Source: patent US12673945B2, “3-((8-((1H-pyrazol-4-yl)amino)imidazo[1,2-a]pyridin-3-yl)ethinyl)-n-phenylbenzamide derivative, method for preparing same, and pharmaceutical composition containing same as active ingredient for prevention or treatment of cancer” (DAEGU-GYEONGBUK MEDICAL INNOVATION FOUNDATION, priority 2020, dated 2026)
